Test results: publication PMC11173485, “Connecting GSK-3β Inhibitory Activity with IKK-β or ROCK-1 Inhibition to Target Tau Aggregation and Neuroinflammation in Alzheimer’s Disease—Discovery, In Vitro and In Cellulo Activity of Thiazole-Based Inhibitors” (Molecules, 2024)
Converted amounts (≈) assume the structure as drawn.

Assays:
[1] = tested on: NO release, LPS-treated BV-2 cells; experiment: NO release in LPS-treated BV-2 cells (DAN fluorometric assay); assay type: cell-based, mouse; conditions: LPS 100 ng/mL, 18 h
Text: (§1) Lipopolysaccharide (LPS) is a potent pro-inflammatory stimulus triggering the extensive production of inflammatory mediators, including cytokines and chemokines. Consequently, it finds widespread application in inducing in vitro and in vivo models of sepsis and inflammation, including neuroinflammation. In this study, we employed LPS in the BV-2 cell line and assessed the impact of the selected compounds on the levels of NO, IL-6, and TNF-α production (Figure 4B–D). […] Moreover, all compounds surpassed the reference compound in these assays.
(§2) The cells were pretreated with tested compounds for 1 h. After this time, lipopolysaccharide (100 ng/mL) was added and the resulting mixture was incubated for 18 h. Next, the culture supernatant was acquired to measure the levels of nitric oxide (NO), IL-6, and TNF-α, according to the following procedures.
The NO level in the culture supernatants was measured using 2,3-diaminonaphthalene (DAN) reagent, according to the method of Nussler et al.. After 15 min of incubation at room temperature, the fluorescence intensity (EX 360; EM 440 nm) was measured using a microplate reader POLARstar Omega, (BMG Labtech). The values of nitric oxide were calculated as a percentage of control (maximal response of LPS).
(§3) Figure 4 (A) Results of the okadaic-acid-induced hyperphosphorylation assay. The HT-22 cells were pretreated for 3 h with okadaic acid (400 nM), and the tested compounds, at the increasing non-cytotoxic concentrations, were determined using a viability assay (or with the vehicle, 10 µM DMSO in the control sample). Cell viability was measured using the PrestoBlue^TM cell viability reagent. (B–D) Results of anti-inflammatory assays in LPS-treated (100 ng/mL) BV-2 cell line. The final compounds and references were tested at increasing non-cytotoxic concentrations and with DMSO as a control sample. NO release was measured using a fluorometric assay with 2,3-diaminonaphthalene (DAN). The IL-6 and TNF-α levels were measured using an LANCE Ultra TR-FRET Detection Kit (Perkin Elmer). Statistical analysis was performed using GraphPad Prism 9.0.0. All values are expressed as mean with SD. Differences among groups were evaluated using one-way ANOVA followed by post hoc analysis (Dunnett’s multiple comparison tests) and were considered statistically significant if p < 0.05 (* p < 0.05, ** p < 0.01, and **** p < 0.0001).

[2] = tested on: IL-6 level, LPS-treated BV-2 cells; experiment: IL-6 level in LPS-treated BV-2 cells (LANCE Ultra TR-FRET); assay type: cell-based, mouse; conditions: LPS 100 ng/mL, 18 h
Text: as §1, §2
IL-6 and TNF-α levels in the culture supernatants were measured using the LANCE Ultra TR-FRET Detection Kit (Perkin Elmer, Waltham, MA, USA), according to the manufacturer’s protocol. Each cytokine detection was performed separately in a 384-well plate, following the kit instructions. Samples were added at 15 μL/well to a 384-well plate and then premixed antibody solution was added at 5 μL/well. After 1 h of incubation of IL-6 and 3 h of incubation of TNF-α in the dark at 22 °C, the plates were read using an EnVision plate reader (Perkin Elmer) with the excitation wavelength at 320 nm, the donor emission were read at 615 nm, and the acceptor emission were read at 660 nm. The values of IL-6 and TNF-α levels were calculated as a percentage of control (maximal response of LPS).
as §3

[3] = tested on: okadaic acid treated HT-22 cells; experiment: Okadaic-acid-induced tau hyperphosphorylation cell model, cell viability; assay type: cell-based, mouse; conditions: okadaic acid 400 nM; for cell viability after okadaic acid (in words): 3 h, viability after 24 h; for activity in okadaic-acid-induced hyperphosphorylation assay (in words): 10, 1, and 0.1 µM
Experimental: We evaluated the neuroprotective properties of the selected compounds in an okadaic-acid-induced tau hyperphosphorylation cell model. Okadaic acid, acting as a phosphatase inhibitor, induces hyperphosphorylation and accumulation of neurofilaments in the cells, thereby mirroring the hyperphosphorylated, tau-induced neurodegeneration observed in AD brain [55, 56]. […] Compounds 50 and 58 were not active.
HT-22 cells were seeded into 96-well plates at a density of 2 × 10^4 cells per well. Okadaic acid (Merck) was added at a concentration of 400 nM and incubated for 3 h. After this time, 10, 1, and 0.1 µM of tested compounds were added and incubated in the aseptic conditions (37 °C, 5% CO2). Cell viability was determined using Presto Blue assay after 24 h. All data were normalized to the percentage survival of vehicle control. Data are represented as mean SD versus vehicle control.
as §3

[4] = Thermodynamic solubility assay in DPBS; assay type: physicochemical; conditions: for solubility at 24 h: Dulbecco's phosphate-buffered saline (DPBS), 20 °C, aqueous buffer, thermodynamic from solid, thermodynamic, 24 h shaking at room temperature, read-out: Solubility (µg/mL) ± SD
Experimental: To address potential challenges related to poorly soluble compounds, such as variable and limited intestinal absorption, we conducted thermodynamic solubility studies.
Quantitative HPLC analyses were performed similarly to the chemical stability studies. A standard solution of the tested compound was prepared in methanol at a concentration of 2 mg/mL. The standard solution was diluted with methanol to obtain five solutions with different concentrations ranging from 0.06 to 0.1 mg/mL or 0.035 to 0.05 mg/mL (for II), and they were quantified via HPLC. The calibration curve was plotted using AUC against the concentration (mg/mL). Next, 2 mg of the tested compound was dissolved in 1 mL of Dulbecco’s phosphate-buffered saline (DPBS), and the mixture was constantly agitated at 20 °C for 24 h in a thermoshaker. After that time, the mixture was filtered through a cellulose acetate syringe filter (pore size 0.22 μm) and the solution was analyzed via HPLC. The solubility of the tested compounds was calculated using the calibration curves (mg/mL).

[5] = Metabolic stability in mouse liver microsomes; assay type: in vitro ADME; conditions: % compound remaining after 15 min with mouse liver microsomes, NADPH
Experimental: Metabolic stability was assessed using pooled microsomes from the liver of male mice (CD-1) from Sigma-Aldrich (St. Louis, MO, USA). Incubations were carried out in 96-well plates. Potassium phosphate buffer (100 mM, pH 7.4, + 2 mM MgCl2) containing murine liver microsomes (0.5 mg protein/mL) was pre-incubated with test compounds or positive control (1 µM, 0.2% DMSO) at 37 °C for 15 min (N = 2). Reactions were initiated by adding NADPH (1 mM). The reactions were also incubated without NADPH to exclude non-NADPH metabolism. The reactions were terminated after 15 min via the addition of an acetonitrile quenching solution containing an internal standard (labetalol, 0.5 mM). The plates were centrifuged at 4000 rpm for 30 min at 4 °C, and an aliquot of supernatant was diluted with water before analysis via UPLC-MS/MS. The UPLC-MS/MS system consisted of a Waters Acquity Premier (Waters Corporation, Milford, MA, USA) coupled with a Waters Xevo TQ-S Cronos mass spectrometer (electrospray ionization mode ESI). […] Chromatograms were recorded using a Waters eλ PDA detector. Spectra were analyzed in the 200–700 nm range with 1.2 nm resolution and a sampling rate of 20 points/s. […]

[6] = Chemical stability assay in phosphate buffer pH 7.4; assay type: physicochemical; conditions: phosphate buffer pH 7.4, 37 °C, 120 min
Experimental: Before conducting the metabolic stability studies, we assessed the chemical stability of 62 and II in phosphate buffer at pH 7.4.
Quantitative HPLC analyses were acquired using Waters Alliance e2695 separations module (Waters, Milford, CT, USA), containing 2998 photodiode array (PDA), a detector (Waters, Milford, CT, USA), and a SpeedROD RP-18e 50–4.6 mm column (Merck, KGaA, Darmstadt, Germany). The temperature of the column was preserved at 30 °C. The experiment was conducted under the following conditions: a flow rate of 5 mL/min, eluent A (water/0.1% HCOOH), eluent B (MeCN/0.1% HCOOH), and a gradient starting from 0% of B to 100% of B for 3 min. Each sample was injected at a volume of 10 μL in triplicate, and the spectra were analyzed at the maximum wavelength. Potassium phosphate buffer (100 mM, pH 7.4, + 2 mM MgCl2) was incubated with the test compounds (1 µM, 0.2% DMSO) at 37 °C for 120 min (N = 2).

Row | Compound | NO level (in words) ([1]; 10 µM) | IL-6 level (in words) ([2]; 1 µM) | IL-6 level (in words) ([2]; 10 µM) | cell viability after okadaic acid (in words) ([3]; 1 µM compound) | cell viability after okadaic acid (in words) ([3]; 10 µM compound) | NO level (in words) ([1]; 1 µM) | activity in okadaic-acid-induced hyperphosphorylation assay (in words) [3] | increase in solubility compared to reference compound II [4] | solubility at 24 h [4] [µg/mL] | MLM Stability (%) ± SD [5] [%] | chemical stability, % compound remaining relative to 0 min [6] [%]
1 | NC(=O)Nc1cc(-c2ccnc(NC(=O)C3CC3)c2)sc1C(N)=O [Compound 49, 5-(2-(Cyclopropanecarboxamido)pyridin-4-yl)-3-ureidothiophene-2-carboxamide] | significantly decreased | reduced IL-6 levels | significantly decreased | increased cell viability | increased cell viability |  |  |  |  |  | 
2 | NC(=O)Nc1cc(-c2ccnc(NC(=O)C3CCC3)c2)sc1C(N)=O [Compound 50, 5-(2-(Cyclobutanecarboxamido)pyridin-4-yl)-3-ureidothiophene-2-carboxamide] | significantly decreased |  | significantly decreased |  |  | reduced NO levels | not active |  |  |  | 
3 | NC(=O)Nc1cc(-c2cccc(NC(=O)C3CC3)c2)sc1C(N)=O [Compound 58, 5-(3-(Cyclopropanecarboxamido)phenyl)-3-ureidothiophene-2-carboxamide] |  |  |  |  |  |  | not active |  |  |  | 
4 | O=C1NC2(CCOC2)Nc2cc(-c3ccnc(NC(=O)C4CC4)c3)sc21 (stereo not drawn) [Compound 62, N-(4-(4′-Oxo-3′,4,4′,5-tetrahydro-1′H,2H-spiro[furan-3,2′-thieno [3,2-d]pyrimidin]-6′-yl)pyridin-2-yl)cyclopropanecarboxamide] | significantly decreased |  | significantly decreased |  | increased cell viability | reduced NO levels |  | sixfold | 31 ± 1 (≈ 83.7 µM) | 100 ± 1 | 100
5 | COc1nc(-c2ccnc(NC(=O)C3CC3)c2)sc1C(N)=O [II, reference compound] |  |  |  |  |  |  |  |  | 5 ± 1 (≈ 15.7 µM) | 100 ± 0 | 100
